{
  "source": "patent US10906892B2",
  "about": "“LFA-1 inhibitor and methods of preparation and polymorph thereof” (NOVARTIS PHARMACEUTICALS CORPORATION, priority 2012, dated 2021)",
  "origin": "cited, not measured here",
  "key": {"[1]": {"details": "background statement, no data given"}, "[2]": {"biological_target": "Lymphocyte Function-Associated Antigen-1 (LFA-1) interactions with ICAM (Homo sapiens, UniProt P20701)", "sequence (P20701 26-1170)": "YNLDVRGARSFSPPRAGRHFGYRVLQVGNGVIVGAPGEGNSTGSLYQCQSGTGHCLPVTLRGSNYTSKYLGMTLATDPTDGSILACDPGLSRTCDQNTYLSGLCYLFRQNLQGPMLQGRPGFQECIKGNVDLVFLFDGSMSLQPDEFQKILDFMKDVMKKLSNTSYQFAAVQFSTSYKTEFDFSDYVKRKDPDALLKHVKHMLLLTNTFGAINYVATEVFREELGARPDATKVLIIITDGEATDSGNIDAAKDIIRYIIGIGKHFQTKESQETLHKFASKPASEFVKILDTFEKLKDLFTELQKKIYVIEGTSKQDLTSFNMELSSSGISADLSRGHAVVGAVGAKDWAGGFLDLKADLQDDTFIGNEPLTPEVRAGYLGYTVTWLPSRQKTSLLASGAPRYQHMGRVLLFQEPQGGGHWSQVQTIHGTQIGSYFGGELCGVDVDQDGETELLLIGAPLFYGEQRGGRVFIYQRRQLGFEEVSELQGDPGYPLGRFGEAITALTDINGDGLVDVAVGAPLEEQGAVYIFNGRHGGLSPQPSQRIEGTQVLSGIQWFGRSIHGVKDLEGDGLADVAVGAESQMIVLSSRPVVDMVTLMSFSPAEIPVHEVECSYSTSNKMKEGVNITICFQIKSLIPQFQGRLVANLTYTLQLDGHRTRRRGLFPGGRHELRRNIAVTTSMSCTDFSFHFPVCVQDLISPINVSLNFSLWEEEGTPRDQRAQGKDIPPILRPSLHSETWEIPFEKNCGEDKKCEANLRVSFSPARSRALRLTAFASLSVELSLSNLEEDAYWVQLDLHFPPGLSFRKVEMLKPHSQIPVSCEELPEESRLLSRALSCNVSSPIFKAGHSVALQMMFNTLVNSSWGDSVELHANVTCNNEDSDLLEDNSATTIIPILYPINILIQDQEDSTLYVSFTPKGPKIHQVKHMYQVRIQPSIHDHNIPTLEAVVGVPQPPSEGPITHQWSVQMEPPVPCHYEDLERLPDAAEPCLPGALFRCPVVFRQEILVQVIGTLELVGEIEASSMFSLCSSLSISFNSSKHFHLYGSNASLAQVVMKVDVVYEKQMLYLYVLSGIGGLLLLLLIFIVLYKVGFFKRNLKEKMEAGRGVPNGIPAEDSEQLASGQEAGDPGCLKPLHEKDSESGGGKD", "sequence (P05107 23-769 partner)": "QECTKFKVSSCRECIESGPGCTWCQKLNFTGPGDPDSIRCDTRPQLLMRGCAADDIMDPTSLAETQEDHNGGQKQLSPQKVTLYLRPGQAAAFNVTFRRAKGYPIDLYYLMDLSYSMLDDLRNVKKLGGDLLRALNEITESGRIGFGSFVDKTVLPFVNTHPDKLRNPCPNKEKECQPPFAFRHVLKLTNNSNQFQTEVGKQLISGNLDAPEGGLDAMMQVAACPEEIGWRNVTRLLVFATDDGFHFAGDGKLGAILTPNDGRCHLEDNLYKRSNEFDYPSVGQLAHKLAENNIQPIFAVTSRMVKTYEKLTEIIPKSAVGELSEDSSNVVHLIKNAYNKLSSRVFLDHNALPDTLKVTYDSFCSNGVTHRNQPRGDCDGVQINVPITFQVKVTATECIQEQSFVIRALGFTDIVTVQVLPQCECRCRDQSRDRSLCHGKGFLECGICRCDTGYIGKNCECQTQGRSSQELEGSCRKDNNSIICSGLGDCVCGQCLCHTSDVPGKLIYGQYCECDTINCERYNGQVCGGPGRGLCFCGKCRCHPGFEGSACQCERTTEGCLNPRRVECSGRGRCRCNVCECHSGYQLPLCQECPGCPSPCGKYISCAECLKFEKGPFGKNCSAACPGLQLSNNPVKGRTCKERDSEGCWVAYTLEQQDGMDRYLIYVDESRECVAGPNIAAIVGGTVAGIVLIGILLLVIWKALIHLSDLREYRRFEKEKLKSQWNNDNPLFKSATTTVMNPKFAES", "details": "background statement, no data given"}},
  "data": [
    {"smiles": "CS(=O)(=O)c1cccc(C[C@H](NC(=O)c2c(Cl)cc3c(c2Cl)CCN(C(=O)c2ccc4ccoc4c2)C3)C(=O)O)c1", "note": "[Formula I]", "values": [
      {"measurement": "systemic clearance", "setting": "[1]", "result": "rapid systemic clearance"},
      {"measurement": "inhibition of LFA-1 interactions with ICAM", "setting": "[2]", "result": "effective inhibitor"}
    ]}
  ]
}
